≈ marks a conversion by molar mass, not a printed value. Read-outs that look alike come from different tables or passages of the source.
Assays:
[1] = test system: Mycobacterium smegmatis CCM 4622 (ATCC 607); assay: Antimycobacterial microdilution, M. smegmatis; type: cell-based; settings: Mycolicibacterium smegmatis, read-out: M. smeg. ATCC 607 MIC
[2] = test system: Aspergillus fumigatus 231; assay: Antifungal microdilution broth, AF; type: cell-based; settings: read-out: MIC AF
[3] = test system: Candida tropicalis 156; assay: Antifungal microdilution broth, CT; type: cell-based; settings: read-out: MIC CT
[4] = test system: Escherichia coli CCM 4517; assay: Antibacterial microdilution broth, EC; type: cell-based; settings: Escherichia coli, read-out: MIC EC
[5] = test system: Candida albicans ATCC 44859; assay: Antifungal microdilution broth, CA; type: cell-based; settings: Candida albicans, read-out: MIC CA
[6] = test system: Staphylococcus aureus H 5996/08 methicillin resistant; assay: microbe, parasite or virus in culture; type: cell-based; settings: Staphylococcus aureus, MRSA, read-out: MIC MRSA
[7] = test system: Staphylococcus epidermidis H 6966/08; assay: Antibacterial microdilution broth, SE; type: cell-based; settings: Staphylococcus epidermidis, read-out: MIC SE
[8] = test system: M. avium ssp. avium CNCTC My 80/72 (ATCC 15769); assay: Antimycobacterial microdilution MABA, M. avium; type: cell-based, Mycobacterium avium; settings: for MIC: Mycobacterium avium, ATCC15769, pH 6.6, read-out: M. avium ATCC 15769 MIC
[9] = test system: Trichophyton interdigitale 445; assay: Antifungal microdilution broth, TI; type: cell-based; settings: read-out: MIC TI
[10] = test system: Pseudomonas aeruginosa CCM 1961; assay: Antibacterial microdilution broth, PA; type: cell-based; settings: Pseudomonas aeruginosa, read-out: MIC PA
[11] = test system: Staphylococcus aureus CCM 4516/08; assay: Antibacterial microdilution broth, SA; type: cell-based; settings: Staphylococcus aureus
[12] = test system: Candida krusei E28; assay: Antifungal microdilution broth, CK; type: cell-based; settings: Pichia kudriavzevii, read-out: MIC CK
[13] = test system: Lichtheimia corymbifera 272; assay: Antifungal microdilution broth, LC; type: cell-based; settings: read-out: MIC LC
[14] = test system: Trichosporon asahii 1188; assay: Antifungal microdilution broth, TA; type: cell-based; settings: read-out: MIC TA
[15] = test system: Enterococcus sp. J 14365/08; assay: Antibacterial microdilution broth, EF; type: cell-based; settings: Enterococcus, read-out: MIC EF
[16] = test system: M. kansasii CNCTC My 235/80 (ATCC 12478); assay: Antimycobacterial microdilution MABA, M. kansasii; type: cell-based, Mycobacterium kansasii; settings: for MIC: Mycobacterium kansasii, ATCC12478, pH 6.6, read-out: M. kans. ATCC 12478 MIC, Middlebrook 7H9 with OADC, pH 6.6, MABA
[17] = test system: Candida glabrata 20/I; assay: Antifungal microdilution broth, CG; type: cell-based; settings: Nakaseomyces glabratus, 20/I, read-out: MIC CG
[18] = test system: Mycobacterium tuberculosis H37Rv CNCTC My 331/88 (ATCC 27294); assay: Antimycobacterial microdilution MABA, M. tuberculosis; type: cell-based; settings: Mycobacterium tuberculosis, read-out: Mtb H37Rv ATCC 27294 MIC, Middlebrook 7H9 with OADC growth supplement, pH = 6.6, MABA
[19] = Aspergillus fumigatus, 231, 24 h
[20] = Aspergillus fumigatus, 231, 48 h
[21] = Middlebrook 7H9 with OADC, pH 6.6, MABA
[22] = Trichophyton interdigitale, 445, 72 h
[23] = Trichophyton interdigitale, 445, 120 h
[24] = CCM4516, 24 h, read-out: MIC SA, 24 h
[25] = CCM4516, 48 h, read-out: MIC SA, 48 h
[26] = Lichtheimia corymbifera, 272, 24 h
[27] = Lichtheimia corymbifera, 272, 48 h
[28] = Trichosporon asahii, 1188, 24 h
[29] = Trichosporon asahii, 1188, 48 h

O=C(Nc1cnccn1)c1ccccc1 [Compound 1a]
MIC [1]: ≥ 500 µg/mL | MIC [2, 19]: > 500 µM | MIC [2, 20]: > 500 µM | MIC ([3]; Candida tropicalis, 156, 24 h): > 500 µM | MIC ([3]; Candida tropicalis, 156, 48 h): > 500 µM | MIC ([4]; CCM4517, 24 h): > 500 µM | MIC ([4]; CCM4517, 48 h): > 500 µM | MIC ([5]; ATCC44859, 24 h): 500 µM (≈ 99.6 µg/mL) | MIC ([5]; ATCC44859, 48 h): > 500 µM | MIC ([6]; 24 h): > 500 µM | MIC ([6]; 48 h): > 500 µM | MIC ([7]; H6966/08, 24 h): > 500 µM | MIC ([7]; H6966/08, 48 h): > 500 µM | melting point: 171.2 to 172 °C | M. avium ATCC 15769 MIC [8, 21]: >100 µg/mL | MIC [8]: > 100 µg/mL | MIC [9, 22]: > 500 µM | MIC [9, 23]: > 500 µM | MIC ([10]; CCM1961, 72 h): > 500 µM | MIC ([10]; CCM1961, 120 h): > 500 µM | MIC [11, 24]: > 500 µM | MIC [11, 25]: > 500 µM | MIC ([12]; E28, 24 h): > 500 µM | MIC ([12]; E28, 48 h): > 500 µM | MIC [13, 26]: > 500 µM | MIC [13, 27]: > 500 µM | MIC [14, 28]: > 500 µM | MIC [14, 29]: > 500 µM | MIC ([15]; SP.J14365/08, 24 h): > 500 µM | MIC ([15]; SP.J14365/08, 48 h): > 500 µM | M. kans. ATCC 12478 MIC [16, 21]: >100 µg/mL | MIC [16]: > 100 µg/mL | MIC ([17]; 24 h): > 500 µM | MIC ([17]; 48 h): > 500 µM | MIC [18]: 100 µg/mL (≈ 502 µM)

O=C(Nc1cnccn1)c1ccccc1O [Compound 1b]
MIC [1]: ≥ 500 µg/mL | MIC [2, 19]: > 500 µM | MIC [2, 20]: > 500 µM | MIC ([3]; Candida tropicalis, 156, 24 h): > 500 µM | MIC ([3]; Candida tropicalis, 156, 48 h): > 500 µM | MIC ([4]; CCM4517, 24 h): > 500 µM | MIC ([4]; CCM4517, 48 h): > 500 µM | MIC ([5]; ATCC44859, 24 h): > 500 µM | MIC ([5]; ATCC44859, 48 h): > 500 µM | MIC ([6]; 24 h): > 500 µM | MIC ([6]; 48 h): > 500 µM | MIC ([7]; H6966/08, 24 h): > 500 µM | MIC ([7]; H6966/08, 48 h): > 500 µM | melting point: 209.9 to 211.5 °C | MIC [8]: > 100 µg/mL | MIC [9, 22]: 500 µM (≈ 108 µg/mL) | MIC [9, 23]: 500 µM (≈ 108 µg/mL) | MIC ([10]; CCM1961, 72 h): > 500 µM | MIC ([10]; CCM1961, 120 h): > 500 µM | MIC [11, 24]: > 500 µM | MIC [11, 25]: > 500 µM | MIC ([12]; E28, 24 h): > 500 µM | MIC ([12]; E28, 48 h): > 500 µM | MIC [13, 26]: > 500 µM | MIC [13, 27]: > 500 µM | MIC [14, 28]: > 500 µM | MIC [14, 29]: > 500 µM | MIC ([15]; SP.J14365/08, 24 h): > 500 µM | MIC ([15]; SP.J14365/08, 48 h): > 500 µM | MIC [16]: > 100 µg/mL | MIC ([17]; 24 h): > 500 µM | MIC ([17]; 48 h): > 500 µM | MIC [18]: > 100 µg/mL

CC(=O)Oc1cccc(C(=O)Nc2cnccn2)c1 [Compound 1c-Ac]
MIC [1]: ≥ 500 µg/mL | MIC [2, 19]: > 500 µM | MIC [2, 20]: > 500 µM | MIC ([3]; Candida tropicalis, 156, 24 h): > 500 µM | MIC ([3]; Candida tropicalis, 156, 48 h): > 500 µM | MIC ([4]; CCM4517, 24 h): > 500 µM | MIC ([4]; CCM4517, 48 h): > 500 µM | MIC ([5]; ATCC44859, 24 h): > 500 µM | MIC ([5]; ATCC44859, 48 h): > 500 µM | MIC ([6]; 24 h): > 500 µM | MIC ([6]; 48 h): > 500 µM | MIC ([7]; H6966/08, 24 h): > 500 µM | MIC ([7]; H6966/08, 48 h): > 500 µM | melting point: 168.4 to 169.5 °C | MIC [8]: > 100 µg/mL | MIC [9, 22]: > 500 µM | MIC [9, 23]: > 500 µM | MIC ([10]; CCM1961, 72 h): > 500 µM | MIC ([10]; CCM1961, 120 h): > 500 µM | MIC [11, 24]: > 500 µM | MIC [11, 25]: > 500 µM | MIC ([12]; E28, 24 h): > 500 µM | MIC ([12]; E28, 48 h): > 500 µM | MIC [13, 26]: > 500 µM | MIC [13, 27]: > 500 µM | MIC [14, 28]: > 500 µM | MIC [14, 29]: > 500 µM | MIC ([15]; SP.J14365/08, 24 h): > 500 µM | MIC ([15]; SP.J14365/08, 48 h): > 500 µM | MIC [16]: > 100 µg/mL | MIC ([17]; 24 h): > 500 µM | MIC ([17]; 48 h): > 500 µM | MIC [18]: > 100 µg/mL

O=C(Nc1cnccn1)c1cccc(O)c1 [Compound 1c]
MIC [1]: ≥ 500 µg/mL | MIC [2, 19]: > 500 µM | MIC [2, 20]: > 500 µM | MIC ([3]; Candida tropicalis, 156, 24 h): > 500 µM | MIC ([3]; Candida tropicalis, 156, 48 h): > 500 µM | MIC ([4]; CCM4517, 24 h): > 500 µM | MIC ([4]; CCM4517, 48 h): > 500 µM | MIC ([5]; ATCC44859, 24 h): > 500 µM | MIC ([5]; ATCC44859, 48 h): > 500 µM | MIC ([6]; 24 h): > 500 µM | MIC ([6]; 48 h): > 500 µM | MIC ([7]; H6966/08, 24 h): > 500 µM | MIC ([7]; H6966/08, 48 h): > 500 µM | melting point: 192.2 to 193.7 °C | MIC [8]: > 100 µg/mL | MIC [9, 22]: > 500 µM | MIC [9, 23]: > 500 µM | MIC ([10]; CCM1961, 72 h): > 500 µM | MIC ([10]; CCM1961, 120 h): > 500 µM | MIC [11, 24]: > 500 µM | MIC [11, 25]: > 500 µM | MIC ([12]; E28, 24 h): > 500 µM | MIC ([12]; E28, 48 h): > 500 µM | MIC [13, 26]: > 500 µM | MIC [13, 27]: > 500 µM | MIC [14, 28]: > 500 µM | MIC [14, 29]: > 500 µM | MIC ([15]; SP.J14365/08, 24 h): > 500 µM | MIC ([15]; SP.J14365/08, 48 h): > 500 µM | MIC [16]: > 100 µg/mL | MIC ([17]; 24 h): > 500 µM | MIC ([17]; 48 h): > 500 µM | MIC [18]: > 100 µg/mL

Source: PMC6225228, “Design, Synthesis and Evaluation of N-pyrazinylbenzamides as Potential Antimycobacterial Agents” (Molecules : A Journal of Synthetic Chemistry and Natural …, 2018)
